From patent US20180338980A1, “AROMATIC SULFONAMIDE DERIVATIVES” (BAYER PHARMA AKTIENGESELLSCHAFT, priority 2015, published 2018) come the findings set out here.

By IC50 is commonly meant the midpoint of a concentration-inhibition curve.

Common to all, as to format: cell-based
One assay deals with T1, mouse P2X4 receptors (Mus musculus, UniProt Q9JJX6).
T1 construct: host or cells: HEK 293 (recombinant, constitutively expressing)
T1 sequence (Q9JJX6 1-388): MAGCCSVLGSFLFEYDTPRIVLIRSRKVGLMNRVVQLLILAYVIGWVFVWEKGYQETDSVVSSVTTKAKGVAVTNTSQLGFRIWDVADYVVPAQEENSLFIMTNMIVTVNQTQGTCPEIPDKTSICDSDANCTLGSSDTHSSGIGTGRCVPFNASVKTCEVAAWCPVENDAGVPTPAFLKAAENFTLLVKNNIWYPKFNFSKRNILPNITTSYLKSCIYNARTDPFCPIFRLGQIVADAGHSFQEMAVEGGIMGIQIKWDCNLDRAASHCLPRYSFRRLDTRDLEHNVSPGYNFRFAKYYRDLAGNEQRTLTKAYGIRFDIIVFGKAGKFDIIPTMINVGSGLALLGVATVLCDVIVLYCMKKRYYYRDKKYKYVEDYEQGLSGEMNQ
Description: Assay B: mouse P2X4 receptor cell line, Fluo8 fluorescence FLIPR (agonist Bz-ATP at EC50). The settings on record: HEK mouse P2X4 cell line, agonist Bz-ATP at EC50, average. Here is the method: The identification of agonists and antagonists of the P2X4 receptor from humans and […] also the quantification of the activity of the compounds of the invention was performed by use of recombinant cell lines. […] The test cell lines constitutively express the mouse or human P2X4 receptors. Stimulation of the receptors with an agonist leads to a conformational change of P2X4 and influx of extracellular calcium ions through the ion channel. The cytoplasmatic calcium transient is detected via the calcium sensitive dye Fluo8 for the mouse P2×4 cell line or in case of the human P2×4 cell line a stably expressed calcium-sensitive photoprotein, mitochondrial photina, which, after reconstitution with the cofactor coelenterazine, emits light in dependence of calcium binding [Bovolenta S, Foti M, Lohmer S, Corazza S., J Biomol Screen. […] The strength of Fluo8 fluorescence signal or photina luminescence signal corresponds to the level of receptor activation. An inhibitor would decrease the signal depending on its potency and concentration.
On the day of the assay medium is exchanged by Fluo8 containing buffer for 30 minutes. In the fluorescence reader (FLIPR) test substances in various concentrations are added for 10 minutes. After baseline measurement the agonist Bz-ATP at EC50 concentration is applied and fluorescence is measured immediately.

For assay [1], the target named is T2, P2X4 (Homo sapiens, UniProt Q99571).
T2 sequence (Q99571 1-388): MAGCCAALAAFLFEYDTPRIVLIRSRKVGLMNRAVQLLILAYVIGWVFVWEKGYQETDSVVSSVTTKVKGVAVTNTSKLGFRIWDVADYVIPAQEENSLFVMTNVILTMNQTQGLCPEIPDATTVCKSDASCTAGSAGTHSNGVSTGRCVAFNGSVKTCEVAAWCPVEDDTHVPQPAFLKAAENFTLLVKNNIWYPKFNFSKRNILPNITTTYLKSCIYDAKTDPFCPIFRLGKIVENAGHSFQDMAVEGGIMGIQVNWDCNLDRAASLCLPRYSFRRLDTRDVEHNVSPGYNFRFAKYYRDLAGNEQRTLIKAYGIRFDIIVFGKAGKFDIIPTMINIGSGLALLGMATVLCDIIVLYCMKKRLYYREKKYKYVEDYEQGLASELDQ
Description: Assay A: human P2X4 receptor cell line, FLIPR calcium assay (Fluo-8, agonist Bz-ATP at EC80). Set-up: host or cells: HEK 293 (recombinant, constitutively expressing; with mitochondrial photina in Assay B). The settings on record: HEK human P2X4 cells, Fluo-8 FLIPR; for IC50: Bz-ATP at EC80, average values; for Emax: percentage of maximal inhibition, read-out: human P2X4 Assay A avg Efficacy. The method in brief: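 HEK cells expressing human P2X4 (20,000/well, plated ~20 h earlier) loaded 30 min with 5 μM Fluo-8 in HBSS/HEPES buffer with 1.8 mM CaCl2, 1 mM MgCl2, 2 mM probenecid, pH 7.4. Antagonist preincubated 30 min at room temperature (0.5% DMSO), then Bz-ATP at EC80. Peak fluorescence over 120 s, normalized to DMSO; triplicate IC50 and Hill fits.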

The target of assay [2] is T2, P2X4. Description: Assay B: human P2X4 receptor cell line, mitochondrial photina luminescence (agonist Bz-ATP at EC50). Set-up: host or cells: HEK 293 (recombinant, constitutively expressing; with mitochondrial photina in Assay B). Particulars: HEK human P2X4 cell line, photina luminescence, agonist Bz-ATP at EC50, average; for Emax: read-out: human P2X4 Assay B avg Efficacy. In short, it runs like this:
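Recombinant cell line constitutively expressing human P2X4 and mitochondrial photina photoprotein, reconstituted with coelenterazine. Receptor stimulated with Bz-ATP at EC50; calcium influx read immediately as luminescence.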

On to `NS(=O)(=O)c1cc(NC(=O)Cc2c(F)cccc2Cl)ccc1Oc1cccc(Cl)c1` [Example 100, 2-(2-Chloro-6-fluorophenyl)-N-[4-(3-chlorophenoxy)-3-sulfamoylphenyl]acetamide], for which the “mouse P2X4 Assay B avg Efficacy” value on mouse P2X4 receptors is listed as 43%.
With `NS(=O)(=O)c1cc(NC(=O)Cc2cccc(F)c2Cl)c(Cl)cc1Oc1cccc(Cl)c1` [Example 083, N-[2-chloro-4-(3-chlorophenoxy)-5-sulfamoylphenyl]-2-(2-chloro-3-fluorophenyl)acetamide], at P2X4 [1], the IC50 was greater than 25000 nM and the Emax was 39%. Moreover, the Emax at P2X4 [2] was found to be 35%.
Regarding `NS(=O)(=O)c1cc(NC(=O)Cc2ccccc2Cl)ccc1Oc1ccc2c(c1)OCO2` [Example 008, N-[4-(1,3-Benzodioxol-5-yloxy)-3-sulfamoylphenyl]-2-(2-chlorophenyl)acetamide], at P2X4 [1], the half-maximal inhibitory concentration (IC50) was 44 nM and the Emax is 88%. Further, on P2X4 [2], the half-maximal inhibitory concentration (IC50) amounted to 73 nM and the Emax is 91%.
For `NS(=O)(=O)c1cc(NC(=O)Cc2ccccc2Cl)ccc1Oc1ccc(N2CCCC2=O)cc1` [Example 043, 2-(2-Chlorophenyl)-N-{4-[4-(2-oxopyrrolidin-1-yl)phenoxy]-3-sulfamoylphenyl}acetamide] the same measures were 515 nM, 85%, 671 nM and 68%.
For `COc1ccc(CC(=O)Nc2ccc(Oc3ccc(Cl)cc3)c(S(N)(=O)=O)c2)c(Cl)c1` [Example 235, 2-(2-Chloro-4-methoxyphenyl)-N-[4-(4-chlorophenoxy)-3-sulfamoylphenyl]acetamide] the same measures were 473 nM, 79%, 787 nM and 69%.
On to `NS(=O)(=O)c1cc(NC(=O)Cc2ccc(F)cc2Cl)ccc1Oc1ccc(Cl)cc1` [Example 231, 2-(2-Chloro-4-fluorophenyl)-N-[4-(4-chlorophenoxy)-3-sulfamoylphenyl]acetamide], for which the results for the IC50 on P2X4 [1] and at P2X4 [2] were 529 nM and 121 nM, respectively. Besides, the Emax at P2X4 [1] is 62%; at P2X4 [2] it was 46%.
For `NS(=O)(=O)c1cc(NC(=O)Cc2ccccc2Cl)ccc1Oc1cncc(F)c1` [Example 080, 2-(2-Chlorophenyl)-N-{4-[(5-fluoropyridin-3-yl)oxy]-3-sulfamoylphenyl}acetamide] the same measures were 44 nM, 140 nM, 65% and 51%.
For `COc1ccc(Cl)c(CC(=O)Nc2ccc(Oc3cccc(Cl)c3)c(S(N)(=O)=O)c2)c1` [Example 102, 2-(2-Chloro-5-methoxyphenyl)-N-[4-(3-chlorophenoxy)-3-sulfamoylphenyl]acetamide] the same measures were 68 nM, 84 nM, 85% and 61%.
For `NS(=O)(=O)c1cc(NC(=O)Cc2ccccc2Cl)ccc1Oc1cc(Cl)ccn1` [Example 039, 2-(2-chlorophenyl)-N-{4-[(4-chloropyridin-2-yl)oxy]-3-sulfamoylphenyl}acetamide] the same measures were 7 nM, 140 nM, 89% and 65%.
`NS(=O)(=O)c1cc(NC(=O)Cc2ccccc2Cl)ccc1Oc1ccc(Cl)nc1` [Example 081, 2-(2-Chlorophenyl)-N-{4-[(6-chloropyridin-3-yl)oxy]-3-sulfamoylphenyl}acetamide]: at P2X4 [1], the half-maximal inhibitory concentration (IC50) stood at 65 nM and the Emax is 43%. Moreover, at P2X4 [2], the IC50 is greater than 16000 nM and the Emax was determined as 36%.
Take `COCCN(C)C(=O)c1cccc(CC(=O)Nc2ccc(Oc3cccc(Cl)c3)c(S(N)(=O)=O)c2)c1` [Example 208, 3-(2-{[4-(3-Chlorophenoxy)-3-sulfamoylphenyl]amino}-2-oxoethyl)-N-(2-methoxyethyl)-N-methylbenzamide]: at P2X4 [1], the IC50 was determined as 38 nM and the Emax stood at 87%. At P2X4 [2], the IC50 turned out to be 552 nM and the Emax stood at 67%.
For `NS(=O)(=O)c1cc(NC(=O)Cc2c(Cl)ccc(C(F)(F)F)c2Cl)ccc1Oc1cccc(Cl)c1` [Example 130, N-[4-(3-Chlorophenoxy)-3-sulfamoylphenyl]-2-[2,6-dichloro-3-(trifluoromethyl)phenyl]acetamide] the same measures were 979 nM, 91%, 1050 nM and 70%.
Regarding `NS(=O)(=O)c1cc(NC(=O)Cc2ccccc2Cl)ccc1Oc1ccccc1Cl` [Example 065, N-[4-(2-Chlorophenoxy)-3-sulfamoylphenyl]-2-(2-chlorophenyl)acetamide], the Emax turned out to be 81% on P2X4 [1] and 70% on P2X4 [2].
Consider `NS(=O)(=O)c1cc(NC(=O)Cc2ccccc2Cl)ccc1OCc1cccnc1` [Example 149, 2-(2-Chlorophenyl)-N-[4-(pyridin-3-ylmethoxy)-3-sulfamoylphenyl]acetamide], for which, on P2X4 [1], the IC50 stood at 45 nM and the Emax was determined as 81%. Further, on P2X4 [2], the 50% inhibitory concentration (IC50) is 118 nM and the Emax was found to be 77%.
On the same counts, the results for `COc1cccc(CC(=O)Nc2ccc(Oc3cccc(Cl)c3)c(S(N)(=O)=O)c2)c1` [Example 191, N-[4-(3-Chlorophenoxy)-3-sulfamoylphenyl]-2-(3-methoxyphenyl)acetamide] are 50 nM, 85%, 149 nM and 72%.
On the same counts, the results for `NS(=O)(=O)c1cc(NC(=O)Cc2ccccc2Cl)ccc1Oc1cccc(N2CCOC2=O)c1` [Example 051, 2-(2-Chlorophenyl)-N-{4-[3-(2-oxo-1,3-oxazolidin-3-yl)phenoxy]-3-sulfamoylphenyl}acetamide] are 20 nM, 87%, 124 nM and 83%.
As to `NS(=O)(=O)c1cc(NC(=O)Cc2ccccc2Cl)ccc1Oc1cccc(C(=O)NC2CC2)c1` [Example 037, 3-(4-{[(2-Chlorophenyl)acetyl]amino}-2-sulfamoylphenoxy)-N-cyclopropylbenzamide], on P2X4 [1], the half-maximal inhibitory concentration (IC50) is 63 nM and the Emax stood at 70%. For the same molecule, at P2X4 [2], the IC50 came to 188 nM and the Emax was determined as 56%.
For `NS(=O)(=O)c1cc(NC(=O)Cc2ccccc2Cl)ccc1OCc1ccc(F)cc1` [Example 143, 2-(2-Chlorophenyl)-N-{4-[(4-fluorobenzyl)oxy]-3-sulfamoylphenyl}acetamide] the same measures were 9 nM, 72%, 39 nM and 71%.
In the case of `NS(=O)(=O)c1cc(NC(=O)Cc2ccccc2Cl)ccc1OCC1CCO1` (centres unmarked) [Example 158, 2-(2-Chlorophenyl)-N-[4-(oxetan-2-ylmethoxy)-3-sulfamoylphenyl]acetamide], the Emax at P2X4 [1] came to 91%; on P2X4 [2], 75%.
